Results from patent publication US4749700A, “Novel methods of administering antihistamines, antinausea and antiemetic pharmaceutical agents and novel dosage forms containing same” (priority 1987, dated 1988).
Counter-ions that a name gives are not always drawn. Like-named read-outs stand apart in the source and are kept apart here.

Assays:
in vivo = test: in vivo; set-up: species or system Sprague-Dawley male rats; settings: rat
Protocol: Two Sprague-Dawley male rats each weighing 250 to 300 grams, anesthetized using sodium pentobarbital (50 mg/Kg of body weight), were administered nasally by micropipet a dosage level of 15 mg/Kg of body weight of the following composition:
216 mg metoclopramide.HCL (MCP.HCL)
895.2 mg polyethylene glycol (PEG 400)
The femoral artery was cannulated with heparinized polyethylene tubing (Clay Adams, PE-50) and blood samples were removed at the times indicated in Table 1.
The samples were analyzed by high pressure liquid chromatography (HPLC) as follows:
Column: Silica Column (4.6×250 mm)
Mobile Phase: CH2 Cl2 : MeOH:NH4 OH=90:10:0.5
Plasma (0.3 ml) was placed in a test tube and 0.1 ml of 1N NaOH was added. Four ml of methylene chloride was then added and the mixture shaken for 10 minutes on a reciprocal shaker, centrifuged for 3 minutes in an IEC clinical centrifuge and the upper layer removed by aspiration. A 3.0 ml aliquot of the methylene chloride layer was transferred to a second tube and evaporated to dryness with a streak of nitrogen gas. The resulting residue was then dissolved in 0.1 to 0.5 ml of mobile phase and submitted to HPLC analysis. […]

[1] = 4-way crossover study of metoclopramide hydrochloride (nasal, oral, intramuscular) in volunteer human subjects; format: in vivo; settings: for Tmax: human, in vivo, Time to Peak
Protocol: A 4-way crossover study was conducted in eight volunteer human subjects to compare the effects of the nasal administration of 5 and 10 mg of metoclopramide hydrochloride in a gel formulation, 10 mg of the same agent in an oral formulation and 5 mg of the product intramuscularly. The nasal formulation had the following composition: […]
______________________________________
BENZYL ALCOHOL N.F. 1.500 ml
SODIUM CHLORIDE U.S.P. 0.800 grams
ACETIC ACID, N.F. 0.320 grams
SODIUM ACETATE U.S.P. 0.077 grams
SORBITOL SOLUTION U.S.P.
METOCLOPRAMIDE HCL 5.000 grams
WATER PURIFIED U.S.P. q.s.
The oral and intramuscular compositions were commercial formulations available from A.G. Robbins Pharmaceutical Company, Richmond, Va., under the name Reglan.
The study was extended to dosage levels of 20 mg and 40 mg by the intranasal route using the same compositions.

nasal polyps = settings: cited from earlier work
nausea and vomiting = test: Intranasal metoclopramide for control of nausea and vomiting in cancer patients; format: in vivo, human; settings: intranasal 40 mg every four hours
Protocol: The patient was a person with Stage IV ovarian cancer.
Because of repeated nausea and vomiting due to bowel obstruction and other factors, intranasal metoclopramide at 40 mg per dose every four hours was employed for control of symptoms.

dogs = settings: cited from earlier work
cats = settings: same or larger amounts into the sinus; cited from earlier work

Question: For `CCN(CC)CCNC(=O)c1cc(Cl)c(N)cc1OC` [metoclopramide hydrochloride], which “maintenance of high levels” value (in vivo) is on record?
Answer: maintained for a longer period of time

Question: What about the “time to achieve maximum levels” value (in vivo) of the same molecule?
Answer: extended

Question: What about the Tmax (in vivo; 15 mg/kg) of the same molecule?
Answer: 0.25 h

Question: What about the Concentration (in vivo; 15 mg/kg, 0.25 h) of the same molecule?
Answer: 1.61 ± 0.23 ug/ml plasma

Question: What about the Concentration (in vivo; 15 mg/kg, 0.5 h) of the same molecule?
Answer: 1.55 ± 0.18 ug/ml plasma

Question: What about the Concentration (in vivo; 15 mg/kg, 0.75 h) of the same molecule?
Answer: 1.30 ± 0.18 ug/ml plasma

Question: What about the Concentration (in vivo; 15 mg/kg, 1 h) of the same molecule?
Answer: 1.26 ± 0.3 ug/ml plasma

Question: And the Concentration (in vivo; 15 mg/kg, 1.25 h)?
Answer: 1.62 ± 0.17 ug/ml plasma

Question: And the Concentration (in vivo; 15 mg/kg, 1.5 h)?
Answer: 1.63 ± 0.18 ug/ml plasma

Question: What about the Concentration (in vivo; 15 mg/kg, 2 h) of the same molecule?
Answer: 1.55 ± 0.26 ug/ml plasma

Question: What about the Concentration (in vivo; 15 mg/kg, 4 h) of the same molecule?
Answer: 1.29 ± 0.28 ug/ml plasma

Question: And the concentration at 0.25 h (in vivo; 15 mg/kg, Concentration)?
Answer: 850 ± 120 ng/mL

Question: And the concentration at 0.5 h (in vivo; 15 mg/kg, Concentration)?
Answer: 1370 ± 210 ng/mL

Question: And the concentration at 0.75 h (in vivo; 15 mg/kg, Concentration)?
Answer: 1510 ± 180 ng/mL

Question: And the concentration at 1 h (in vivo; 15 mg/kg, Concentration)?
Answer: 1610 ± 50 ng/mL

Question: And the concentration at 1.25 h (in vivo; 15 mg/kg, Concentration)?
Answer: 1110 ± 340 ng/mL

Question: And the concentration at 1.5 h (in vivo; 15 mg/kg, Concentration)?
Answer: 1040 ± 350 ng/mL

Question: And the concentration at 2 h (in vivo; 15 mg/kg, Concentration)?
Answer: 1100 ± 380 ng/mL

Question: What about the concentration at 2.5 h (in vivo; 15 mg/kg, Concentration) of the same molecule?
Answer: 1550 ± 210 ng/mL

Question: And the concentration at 3 h (in vivo; 15 mg/kg, Concentration)?
Answer: 1090 ± 360 ng/mL

Question: What about the concentration at 4 h (in vivo; 15 mg/kg, Concentration) of the same molecule?
Answer: 940 ng/mL

Question: What about the pharmacokinetic profiles ([1]; 10 mg nasal, 10 mg P.O. and 5 mg I.M. compared) of the same molecule?
Answer: statistically identical

Question: What about the local toxicity ([1]; during or after the study, 5 and 10 mg nasal, 10 mg P.O., 5 mg I.M.) of the same molecule?
Answer: No evidence of local toxicity

Question: What about the “local or systemic toxicity” value ([1]; extended study, 20 mg and 40 mg intranasal) of the same molecule?
Answer: no evidence of either local or systemic toxicity

Question: And the Tmax [1]?
Answer: 1.34 h

Question: What about the Tmax ([1]; im) of the same molecule?
Answer: 1.53 h

Question: What about the Tmax ([1]; po) of the same molecule?
Answer: 1.62 h

Question: Which topical antiinflammatory activity (nasal polyps) does the source give for `CC1(C)O[C@@H]2C[C@H]3[C@@H]4C[C@H](F)C5=CC(=O)C=C[C@]5(C)[C@H]4[C@@H](O)C[C@]3(C)[C@]2(C(=O)CO)O1` [flunisolide] here?
Answer: excellent topical antiinflammatory

Question: What about the absorption (nasal polyps; nasal topical) of the same molecule?
Answer: not rapidly absorbed

Question: What about the systemic activity (nasal polyps; nasal topical) of the same molecule?
Answer: minimal systemic activity

Question: What does the source list for `CCN(CC)CCNC(=O)c1cc(Cl)c(N)cc1OC` [metoclopramide]?
Answer: benefit from treatment (nausea and vomiting; five more cancer patients refractory to other antinausea treatments): All patients benefited from the treatment; control of nausea (nausea and vomiting; one patient, Stage IV ovarian cancer with bowel obstruction): contained their nausea between occasional bouts of vomiting

Question: With `CN1CCCC1c1cccnc1` (centres unmarked) [nicotine] as the molecule, how does the pressor response (dogs; injection of 1 mg) read?
Answer: immediate and marked pressor response

Question: What about the pressor response (dogs; same or larger amounts into the sinus) of the same molecule?
Answer: little or no effect

Question: And the pressor response (cats)?
Answer: little or no effect
